According to BindingDB's records for doi:10.1007/s00044-011-9938-0 (n/a, 2012):

Target: Alpha-glucosidase MAL62 (Saccharomyces cerevisiae, UniProt P07265)
Test: Inhibition of baker's yeast alpha-glucosidase using p-nitrophenyl-alpha-D-glucopyranoside as substrate by spectrophotometry

Alpha-glucosidase MAL62, sequence (P07265 whole entry): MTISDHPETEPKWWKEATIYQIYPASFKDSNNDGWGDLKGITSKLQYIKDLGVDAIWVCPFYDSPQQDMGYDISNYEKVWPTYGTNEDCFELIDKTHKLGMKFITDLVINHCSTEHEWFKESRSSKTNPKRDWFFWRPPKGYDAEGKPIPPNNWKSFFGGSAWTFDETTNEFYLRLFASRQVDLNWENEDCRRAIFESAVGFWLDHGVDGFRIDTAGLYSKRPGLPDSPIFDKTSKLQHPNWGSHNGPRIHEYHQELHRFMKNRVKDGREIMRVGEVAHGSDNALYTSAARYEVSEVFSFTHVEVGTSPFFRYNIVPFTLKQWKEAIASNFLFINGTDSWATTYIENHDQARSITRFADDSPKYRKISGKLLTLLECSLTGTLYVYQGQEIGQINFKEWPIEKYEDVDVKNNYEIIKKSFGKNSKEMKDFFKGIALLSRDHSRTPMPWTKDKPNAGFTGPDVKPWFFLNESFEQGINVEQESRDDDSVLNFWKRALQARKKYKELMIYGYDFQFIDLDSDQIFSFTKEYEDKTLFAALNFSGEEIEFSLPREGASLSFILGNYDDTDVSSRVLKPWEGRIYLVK

Row | SMILES | IC50
1 | O=c1c(O)c(-c2cc(O)c(O)c(O)c2)oc2cc(O)cc(O)c12 | 5 µM
2 | O=C1C[C@@H](c2ccc(O)cc2)Oc2cc(O)cc(O)c21 | 75 µM
3 | O=c1c(-c2ccc(O)cc2)coc2cc(O)ccc12 | 14 µM
4 | O=c1cc(O)cc2oc(-c3ccc(O)c(O)c3)c(O)cc1-2 | 4 µM
5 | O=C(O)/C=C/c1ccc(F)cc1 | 270 µM
6 | OC[C@H]1OC(OC2=C(c3cc(O)c(O)c(O)c3)Oc3cc(O)cc(O)c3C2)[C@@H](O)[C@@H](O)[C@@H]1O (stereo partly drawn) | 30 µM
7 | O=C(O)/C=C/c1ccc(Oc2ccccc2)cc1 | 440 µM
8 | COc1cccc(/C=C/C(=O)O)c1 | 579 µM
9 | OC[C@H]1OC(OC2=C(c3ccc(O)c(O)c3)Oc3cc(O)cc(O)c3C2)[C@@H](O)[C@@H](O)[C@@H]1O (stereo partly drawn) | 20 µM
10 | O=c1c(O)c(-c2ccc(O)cc2)oc2cc(O)cc(O)c12 | 12 µM
11 | O=c1c(O)c(-c2ccc(O)c(O)c2)oc2cc(O)cc(O)c12 [2-(3,4-dihydroxyphenyl)-3,5,7-trihydroxy-chromone;hydrate] | 7 µM
12 | O=c1cc(-c2ccc(O)c(O)c2)oc2cc(O)cc(O)c12 [2-(3,4-dihydroxyphenyl)-5,7-dihydroxy-4H-chromen-4-one] | 21 µM
13 | COc1ccc(/C=C/C(=O)O)cc1 [3-(4-methoxyphenyl)acrylic acid] | 40 µM
14 | CCOC(=O)/C=C/c1ccc(OC)cc1 [4-Methoxy Ethyl Cinnamate] | 50 µM
15 | O=C(O)/C=C/c1cccc(O)c1 [(2E)-3-(3-hydroxyphenyl)prop-2-enoic acid] | 1270 µM
16 | Oc1cc(O)c2c(c1)O[C@H](c1ccc(O)c(O)c1)[C@@H](O)C2 [CHEBI:23053] | 130 µM
17 | O=C(O)/C=C/c1ccc(Cl)cc1 [CHEBI:61116] | 390 µM
18 | Oc1cc(O)c2c(c1)O[C@H](c1cc(O)c(O)c(O)c1)[C@H](O)C2 [CHEBI:71224] | 75 µM
19 | O=C(O)c1cc(O)c(O)c(O)c1 [Gallic Acid, F] | 5.2 µM
20 | O=C(O[C@@H]1Cc2c(O)cc(O)cc2O[C@@H]1c1cc(O)c(O)c(O)c1)c1cc(O)c(O)c(O)c1 [epigallocatechin gallate] | 2 µM
21 | O=C(O)/C=C/c1ccc(O)cc1 [p-Coumaric Acid] | 200 µM

Further lines, results first:

Row | IC50 | SMILES
22 | 19.1 µM | CC1(C)C=Cc2cc(C(=O)/C=C/c3ccc(O)c(O)c3)c(O)cc2O1
23 | 155 µM | C=C(C)C(CC=C(C)C)Cc1c(O)cc(OC)c2c1OC(c1ccc(OC)cc1O)CC2=O (stereo not drawn)
24 | 12 µM | CC(C)=CCc1cc(C2CCc3ccc(O)cc3O2)c(CC=C(C)C)c(O)c1O (stereo not drawn)
25 | 358 µM | COc1cc(O)c(C(C)=C(C)C)c2c1C(=O)CC(c1ccc(O)cc1)O2 (stereo not drawn)
26 | 179 µM | C=C(C)C(CCC(C)(C)O)Cc1c(O)cc(OC)c2c1OC(c1ccc(O)cc1O)CC2=O (stereo not drawn)
27 | 37 µM | C=C(C)C(CC=C(C)C)Cc1c(O)cc(O)c2c1OC(c1ccc(O)cc1O)CC2=O (stereo not drawn)
28 | 45 µM | C=C(C)C(CC=C(C)C)Cc1c(O)cc(O)c2c1OC(c1ccccc1O)CC2=O (stereo not drawn)
29 | 27.6 µM | C=CC(C)(C)c1c(O)cc(O)c2c(=O)c3oc4c5c(c(OCC=C(C)C)cc4c3oc12)OC(C)(C)C=C5
30 | 10.6 µM | C=CC(C)(C)c1cc2c(cc1O)OC(c1cc(O)c(O)c(CC=C(C)C)c1C/C=C\C)CC2 (stereo not drawn)
31 | 68.1 µM | C=C(C)C(CC=C(C)C)Cc1c(O)cc(OC)c2c1OC(c1ccc(O)cc1O)CC2=O (stereo not drawn)
32 | 33.3 µM | C=CC(C)(C)c1c(O)cc(O)c2c(=O)c3oc4c(CC=C(C)C)c(O)c(OCC=C(C)C)cc4c3oc12
33 | 26.3 µM | CC(C)=CCc1c(C2CCc3ccc(O)cc3O2)cc2c(c1O)OC(C)(C)C=C2 (stereo not drawn)
34 | 40 µM | O=c1c(O)c(-c2ccc(O)cc2O)oc2cc(O)cc(O)c12 [2-(2,4-dihydroxyphenyl)-3,5,7-trihydroxychromen-4-one]
35 | 13 µM | O=c1c(O)c(-c2ccc(O)c(O)c2)oc2cc(O)ccc12 [2-(3,4-dihydroxyphenyl)-3,7-dihydroxy-chromen-4-one]
36 | 3.6 µM | C=CC(C)(C)c1c(O)cc(O)c2c(=O)c(O)c(-c3cc(O)c(O)c(CC=C(C)C)c3)oc12 [2-[3,4-Dihydroxy-5-(3-methyl-but-2-enyl)-phenyl]-8-(1,1-dimethyl-allyl)-3,5,7-trihydroxy-chromen-4-one]
37 | 12.3 µM | CC1(C)C=Cc2cc(C(=O)/C=C/c3ccc(O)cc3)c(O)cc2O1 [4-HYDROXYISOLONCHOCARPIN]
38 | 75.7 µM | CC(C)=CCc1cc(C2CCc3ccc(O)cc3O2)cc(O)c1O (stereo not drawn) [5-(7-Hydroxy-chroman-2-yl)-3-(3-methyl-but-2-enyl)-benzene-1,2-diol]
39 | 150 µM | COc1ccc([C@@H]2CC(=O)c3c(O)cc(O)cc3O2)cc1O [(2S)-5,7-dihydroxy-2-(3-hydroxy-4-methoxyphenyl)-3,4-dihydro-2H-1-benzopyran-4-one]
40 | 11.1 µM | CC(C)=CCc1cc(C(=O)/C=C/c2ccc(O)cc2)c(O)cc1O [BROUSSOCHALCONE B]
41 | 2.1 µM | CC(C)=CCc1cc(-c2oc3cc(O)c(CC=C(C)C)c(O)c3c(=O)c2O)cc(O)c1O [CHEBI:66727]
42 | 7 µM | O=c1c(-c2ccc(O)cc2)coc2cc(O)cc(O)c12 [Prunetol]
43 | 5.3 µM | CC(C)=CCc1cc(C(=O)/C=C/c2ccc(O)c(O)c2)c(O)cc1O [broussochalcone A]
